In paper PMC11285769, “A pan-respiratory antiviral chemotype targeting a transient host multi-protein complex” (Open Biology, 2024):
Values joined by “and” are separate entries in the source; they are usually repeats but may differ in a detail not shown here. Equal values may be shown once.

How the values were obtained:
FLUV A/WSN/33 = type: cell-based, influenza A/WSN/33
[1] = system: SARS-CoV-2 Omicron variant (lineage B.A.1); type: cell-based
[2] = system: SARS-CoV-2 delta variant (lineage B.1.617.2); type: cell-based
[3] = system: SARS-CoV-2 gamma variant, lineage P.1; type: cell-based

Row | Structure (SMILES) | activity against FLUV after 7 passages with compound (FLUV A/WSN/33) | percentage reduction in infection (FLUV A/WSN/33) | efficacy against SARS-CoV-2 Omicron [1] | efficacy against SARS-CoV-2 delta variant [2] | viral load eliminated compared to vehicle [3] [%]
1 | COc1cccc(CNC(=O)c2cc(C3CC3)nn2C)c1OC [PAV-835] | retained the same activity against FLUV as it did against a naive strain | 98.9 percentage and 91.9 percentage | – | – | –
2 | COc1c(CNC(=O)c2cc(C3CC3)nn2C)cccc1OC(F)(F)F [PAV-431] | – | – | significant efficacy | clear trend | ≥ 90
3 | CCOC(=O)C1=C[C@@H](OC(CC)CC)[C@H](NC(C)=O)[C@@H](N)C1 [Oseltamivir, reference compound] | lost activity by passage 7 | – | – | – | –
